Assay results reported in US8614250B2 (Industry-Academic Cooperation Foundation, Yonsei University, priority 2011, dated 2013).
Marks after values point to notes of the source that are not given here.

How the values were obtained:
[1] = Body weight gain, food intake and visceral fat-pad weights in mice fed high-fat diet supplemented with adipic acid; assay type: in vivo, C57BL/6J mice; conditions: 0.2% adipic acid in high-fat diet, 10 weeks
From the text: (§1) The obesity-inducing control diet used in the test was high-fat diet (HFD: 40% fat calorie, 17 g lard+3% corn oil/100 g diet). […] The normal diet group (Chow) was fed with commercially available rodent chow.
(§2) 5-week-old male C57BL/6J mice (Orient, Korea) were accustomed to the laboratory environment for 1 week while feeding solid feed. Then, they were randomly divided into normal diet, high-fat diet and test groups and bred for a total of 10 weeks. The diet was given between 10 and 11 a.m. every day together with water. Food intake was measured every day and body weight was measured once a week. In order to avoid transient body weight increase after feed intake, body weight was measured 2 hours after removing the feed. After fasting the test animal for at least 12 hours and anesthetizing with diethyl ether, blood, liver and visceral fat (epididymal fat, perirenal fat, mesenteric fat and retroperitoneal fat) were taken and weighed after washing with 0.1 M PBS (pH 7.4). Blood taken from the abdominal aorta was centrifuged at 1000×g for 15 minutes for the separation of plasma.

[2] = Biochemical analysis of blood (plasma lipids, glucose, ALT, AST) in mice fed test diets; assay type: in vivo, C57BL/6J mice; conditions: 10 weeks
From the text: as §1, §2
After 10 weeks of breeding, total cholesterol, triglyceride and glucose levels in the plasma and lipid levels in the liver tissue were measured as follows. Total cholesterol, triglyceride, free fatty acid and glucose levels in the plasma were measured twice for each using a commercially available kit (Bio Clinical System). The activity of ALT (alanine aminotransferase) and AST (aspartate aminotransferase) used as liver function indicator were measured twice for each using a commercially available kit (Bio Clinical System, Korea).

[3] = Liver weight and lipid level in liver tissues of mice fed test diets; assay type: in vivo, C57BL/6J mice; conditions: 10 weeks
From the text: as §1, §2
Lipids were extracted from the liver tissue according to Folch et al.'s method Folch J et al., J Biol Chem. 226: 497-509 (1957)). After adding 1 mL of distilled water to 0.25 g of liver tissue, the liver tissue was homogenized using a Polytron homogenizer (IKA-Werke GmbH & Co., Ultra-Turrax, Staufen, Germany). After adding 5 mL of chloroform:methanol solution (2:1, v/v) to the homogenate and mixing well, the mixture was centrifuged at 1000×g for 10 minutes. After adding 2 mL of chloroform:methanol solution (2:1, v/v) again to the supernatant, the same procedure was repeated to completely separate the lipid components of the liver. After adding 3 mL of chloroform:methanol:0.05% CaCl2 (3:48:47, v/v/v) solution to the remaining pellets and mixing well for 1 minute, followed by centrifugation at 1000×g for 10 minutes, the resulting pellets were completely dried with nitrogen gas. The dried lipids were dissolved in 1 mL of methanol and then analyzed.
The same kit (Bio Clinical System) as that used for the plasma analysis was used to measure the triglyceride and cholesterol levels of the liver tissue.

C/EBPα gene expression = test: RT-PCR analysis of visceral fat tissues; assay type: in vivo, C57BL/6J mice; conditions: mRNA, versus HFD
Method: (§3) After adding 1 mL of Trizol agent per 0.1 g of visceral fat tissues, the mixture was homogenized and centrifuged at 12,000×g for 10 min at 4° C. The supernatant was transferred to a new tube and 200 μl of chloroform was added to the tube, followed by vortexing. The same procedure was repeated twice and then the supernatant was transferred to a new tube, followed by addition of isopropanol and the supernatant at 1:1 ratio. The mixture was vigorously shaken 10 times and then incubated for 10 min at room temperature, followed by centrifugation at 12,000×g for 10 min at 4° C. to remove the supernatant. After adding 1 mL of 70% ethanol to the remaining pellet, it was centrifuged at 7,500×g for 5 min at 4° C. After removing the ethanol, the RNA pellet contained in the tube was dried for 5 min at 4° C. and dissolved in nuclease-free water. The RNA sample concentration was measured at a wavelength of 260 nm and 280 nm using a UV/VIS spectrophotometer (Beckman coulter, DU730) and the integrity of RNA sample was verified by agarose gel electrophoresis.
(§4) The RNA sample obtained from the visceral fat tissues was transcribed using oligo dT primer and SuperScript reverse transcriptase (GIBCO BRL, Gaithersburg, Md., USA) to synthesize cDNA. The PCR amplification was performed using the cDNA as templates and primers complementary to cDNA 5′ and 3′ flanking sequence. The amplified products were resolved on agarose gel electrophoresis.

IL-6 gene expression = test: RT-PCR analysis of visceral fat tissues; assay type: in vivo, C57BL/6J mice; conditions: mRNA
Method: as §3, §4

PPARγ2 gene expression = test: RT-PCR analysis of visceral fat tissues; assay type: in vivo, C57BL/6J mice; conditions: mRNA, versus HFD
Method: as §3, §4

TNF-α gene expression = test: RT-PCR analysis of visceral fat tissues; assay type: in vivo, C57BL/6J mice; conditions: mRNA
Method: as §3, §4

aP2 gene expression = test: RT-PCR analysis of visceral fat tissues; assay type: in vivo, C57BL/6J mice; conditions: mRNA, versus HFD
Method: as §3, §4

[4] = rat; ketosis caused by long-chain and short-chain monocarboxylic acids; cited from earlier work
[5] = patients treated for 8 weeks; cited from earlier work

O=C(O)CCCCC(=O)O [adipic acid]
daily food intake [1]: no significant change
decrease of body weight gain as compared to HFD [1]: 49%
epididymal fat-pad weight as compared to HFD [1]: significantly reduced
mesenteric fat-pad weight as compared to HFD [1]: significantly reduced
perirenal fat-pad weight as compared to HFD [1]: significantly reduced
reduction of total visceral fat weight as compared to HFD [1]: 21%
retroperitoneal fat-pad weight as compared to HFD [1]: significantly reduced
decrease of plasma ALT activity as compared to HFD [2]: 40%
decrease of plasma AST activity as compared to HFD [2]: 27%
lower plasma free fatty acid level as compared to HFD [2]: 32%
lower plasma total cholesterol level as compared to HFD [2]: 24%
lower plasma triglyceride level as compared to HFD [2]: 26%
reduction of fasting blood sugar level as compared to HFD [2]: 25%
ALT ([2]; plasma, mean ± SEM): 7.9 ± 0.78^c IU/L
AST ([2]; plasma, mean ± SEM): 8.9 ± 0.28^b IU/L
Free fatty acid ([2]; plasma, mean ± SEM): 890 ± 56^c uEq/L
Total cholesterol ([2]; plasma, mean ± SEM): 2.66 ± 0.41^b mmol/L
Triglyceride ([2]; plasma, mean ± SEM): 0.89 ± 0.05^b mmol/L
Glucose ([2]; plasma, fasted, mean ± SEM): 6.6 ± 0.41^b mmol/L
decrease of cholesterol level in liver tissue as compared to HFD [3]: 44%
decrease of free fatty acid level in liver tissue as compared to HFD [3]: 37%
decrease of triglyceride level in liver tissue as compared to HFD [3]: 26%
reduction of liver absolute weight as compared to HFD [3]: 12%
expression of C/EBPα gene (C/EBPα gene expression): significantly decreased
HFD-induced elevation in the expression of IL-6 (IL-6 gene expression): significantly reversed
expression of PPARγ2 gene (PPARγ2 gene expression): significantly decreased
HFD-induced elevation in the expression of TNF-α (TNF-α gene expression): significantly reversed
expression of aP2 gene (aP2 gene expression): significantly decreased
effect on ketosis [4]: effective for improving ketosis

CCOC(=O)C1=C(COCCN)NC(C)=C(C(=O)OC)C1c1ccccc1Cl.O=C(O)CCCCC(=O)O (stereo not drawn) [amlodipine adipate]
symptoms of hypertension [5]: alleviated symptoms of hypertension
